Results reported in US9879250B2, “Protein-stabilizing agent and protein-stabilizing method” (NOF CORPORATION, priority 2014, dated 2018).

Assay: Dissolution in phosphate buffer when preparing the protein stabilization solution
Assay type: physicochemical
Conditions: phosphate buffer (pH 7.4)
Protocol: Two protein stabilizer solutions were prepared by dissolving the compound produced in Synthesis Example 1 in a phosphate buffer (pH 7.4) in such a manner that the final concentrations were controlled at 1.000% by mass (Example 1-1-1) and 0.100% by mass (Example 1-1-2) shown in Table 1 respectively.
Preparation of a protein stabilization solution was tested in the same manner as Example 1-1 except for using the compound produced in Comparative Synthesis Example 1. However, the compound produced in Comparative Synthesis Example 1 was not dissolved in the phosphate buffer, so that the protein stabilization effect could not evaluated.

CCCCCCCCCCCCCCCCCCCCSCC(C)C(=O)OCCOP(=O)([O-])OCC[N+](C)(C)C (stereo not shown) [Comparative Synthesis Example 1, 2-[3-(eicosasulfanyl)-2-methylpropionyloxy]ethyl-2-(trimethylammonio)ethyl phosphate]
Dissolution in the phosphate buffer: not dissolved
